{"source": "ChEMBL document CHEMBL4392856", "about": "“Synthesis of diphenoxyadamantane alkylamines with pharmacological interest” (Bioorg Med Chem Lett, 2019)", "key": {"Trypanosoma brucei": {"tested_on": "Trypanosoma brucei", "assay": "Antitrypanosomal activity against Trypanosoma brucei 427 bloodstream forms assessed as inhibition of parasite growth incubated for 48 hrs by Alamar blue assay", "format": "functional, organism-based", "conditions": "Trypanosoma brucei, 427, 48 h"}, "L6": {"tested_on": "L6", "assay": "Cytotoxic activity against rat L6 cells assessed as reduction in cell viability incubated for 6 days by Alamar blue assay", "format": "cell-based", "conditions": "L6, 144 h"}, "[1]": {"tested_on": "Mycobacterium tuberculosis", "assay": "Antimycobacterial activity against Mycobacterium tuberculosis H37Rv assessed as inhibition of parasite growth incubated for 6 days by REMA method", "format": "functional", "conditions": "144 h"}, "[2]": {"tested_on": "Mycobacterium tuberculosis", "assay": "Antimycobacterial activity against […] assessed as inhibition of parasite growth incubated for 6 days by REMA method", "format": "functional"}, "[3]": {"tested_on": "Mycobacterium tuberculosis", "assay": "Antimycobacterial activity against Mycobacterium tuberculosis assessed as inhibition of parasite growth at 1 ug/ml incubated for 6 days by REMA method relative to untreated control", "format": "functional", "conditions": "144 h"}}}
{"smiles": "CN1CCN(CC(O)COc2ccc(C3(c4ccc(OCC(O)CN5CCN(C)CC5)cc4)C4CC5CC(C4)CC3C5)cc2)CC1", "note": "(stereo not given)", "values": [{"measurement": "IC50", "setting": "Trypanosoma brucei", "result": 114, "unit": "nM"}, {"measurement": "IC90", "setting": "Trypanosoma brucei", "result": 138, "unit": "nM"}, {"measurement": "IC50", "setting": "L6", "result": 540, "unit": "nM"}, {"measurement": "MIC", "setting": "[1]", "result": 8.5, "unit": "µM"}]}
{"smiles": "CN1CCN(CCOc2ccc(C3(c4ccc(OCCN5CCN(C)CC5)cc4)C4CC5CC(C4)CC3C5)cc2)CC1", "values": [{"measurement": "IC50", "setting": "Trypanosoma brucei", "result": 51, "unit": "nM"}, {"measurement": "IC90", "setting": "Trypanosoma brucei", "result": 70, "unit": "nM"}, {"measurement": "IC50", "setting": "L6", "result": 330, "unit": "nM"}, {"measurement": "MIC", "setting": "[1]", "result": 4.59, "unit": "µM"}, {"measurement": "Imax", "setting": "[2]", "result": 100, "unit": "%"}, {"measurement": "inhibition at 1 µg/mL", "setting": "[3]", "result": 0.04, "unit": "%"}]}
{"smiles": "CN1CCN(CC(O)COc2ccc(C34CC5CC(C3)CC(c3ccc(OCC(O)CN6CCN(C)CC6)cc3)(C5)C4)cc2)CC1", "note": "(stereo not given)", "values": [{"measurement": "IC50", "setting": "Trypanosoma brucei", "result": 176, "unit": "nM"}, {"measurement": "IC90", "setting": "Trypanosoma brucei", "result": 207, "unit": "nM"}, {"measurement": "IC50", "setting": "L6", "result": 260, "unit": "nM"}, {"measurement": "MIC", "setting": "[1]", "result": 20.5, "unit": "µM"}, {"measurement": "Imax", "setting": "[2]", "result": 95, "unit": "%"}, {"measurement": "inhibition at 1 µg/mL", "setting": "[3]", "result": 5, "unit": "%"}]}
{"smiles": "CO[C@H]1/C=C/O[C@@]2(C)Oc3c(C)c(O)c4c(O)c(c(/C=N/N5CCN(C)CC5)c(O)c4c3C2=O)NC(=O)/C(C)=C\\C=C\\[C@H](C)[C@H](O)[C@@H](C)[C@@H](O)[C@@H](C)[C@H](OC(C)=O)[C@@H]1C", "note": "[RIFAMPIN]", "values": [{"measurement": "MIC", "setting": "[1]", "result": 0.001, "unit": "µM"}, {"measurement": "Imax", "setting": "[2]", "result": 54, "unit": "%"}, {"measurement": "inhibition at 1 µg/mL", "setting": "[3]", "result": 13, "unit": "%"}]}
{"smiles": "CSc1ccc(OCc2ncc([N+](=O)[O-])n2C)cc1", "note": "[FEXINIDAZOLE]", "values": [{"measurement": "IC50", "setting": "Trypanosoma brucei", "result": 1000, "unit": "nM"}]}
{"smiles": "CCCCNCC(O)COc1ccc(C23CC4CC(C2)CC(c2ccc(OCC(O)CNCCCC)cc2)(C4)C3)cc1", "note": "(stereo not given)", "values": [{"measurement": "IC50", "setting": "Trypanosoma brucei", "result": 93, "unit": "nM"}, {"measurement": "IC90", "setting": "Trypanosoma brucei", "result": 110, "unit": "nM"}, {"measurement": "IC50", "setting": "L6", "result": 550, "unit": "nM"}, {"measurement": "MIC", "setting": "[1]", "result": 4.14, "unit": "µM"}, {"measurement": "Imax", "setting": "[2]", "result": 100, "unit": "%"}, {"measurement": "inhibition at 1 µg/mL", "setting": "[3]", "result": 50, "unit": "%"}]}
{"smiles": "CN(C)CC(O)COc1ccc(C23CC4CC(C2)CC(c2ccc(OCC(O)CN(C)C)cc2)(C4)C3)cc1", "note": "(stereo not given)", "values": [{"measurement": "IC50", "setting": "Trypanosoma brucei", "result": 171, "unit": "nM"}, {"measurement": "IC90", "setting": "Trypanosoma brucei", "result": 235, "unit": "nM"}, {"measurement": "IC50", "setting": "L6", "result": 290, "unit": "nM"}]}
{"smiles": "OCCN(CCO)CC(O)COc1ccc(C2(c3ccc(OCC(O)CN(CCO)CCO)cc3)C3CC4CC(C3)CC2C4)cc1", "note": "(stereo not given)", "values": [{"measurement": "MIC", "setting": "[1]", "result": 24.3, "unit": "µM"}]}
{"smiles": "OC(COc1ccc(C23CC4CC(C2)CC(c2ccc(OCC(O)CN5CCCCC5)cc2)(C4)C3)cc1)CN1CCCCC1", "note": "(stereo not given)", "values": [{"measurement": "IC50", "setting": "Trypanosoma brucei", "result": 250, "unit": "nM"}, {"measurement": "IC90", "setting": "Trypanosoma brucei", "result": 292, "unit": "nM"}, {"measurement": "IC50", "setting": "L6", "result": 270, "unit": "nM"}, {"measurement": "MIC", "setting": "[1]", "result": 10.4, "unit": "µM"}, {"measurement": "Imax", "setting": "[2]", "result": 99, "unit": "%"}, {"measurement": "inhibition at 1 µg/mL", "setting": "[3]", "result": 0.17, "unit": "%"}]}
{"smiles": "CCCCCCNCC(O)COc1ccc(C23CC4CC(C2)CC(c2ccc(OCC(O)CNCCCCCC)cc2)(C4)C3)cc1", "note": "(stereo not given)", "values": [{"measurement": "IC50", "setting": "Trypanosoma brucei", "result": 205, "unit": "nM"}, {"measurement": "IC90", "setting": "Trypanosoma brucei", "result": 272, "unit": "nM"}, {"measurement": "IC50", "setting": "L6", "result": 450, "unit": "nM"}, {"measurement": "MIC", "setting": "[1]", "result": 0.084, "unit": "µM"}, {"measurement": "Imax", "setting": "[2]", "result": 0, "unit": "%"}, {"measurement": "inhibition at 1 µg/mL", "setting": "[3]", "result": 0, "unit": "%"}]}
{"smiles": "CC[C@@H](CO)NCCN[C@@H](CC)CO", "note": "[ETHAMBUTOL]", "values": [{"measurement": "MIC", "setting": "[1]", "result": 0.11, "unit": "µM"}, {"measurement": "Imax", "setting": "[2]", "result": 0, "unit": "%"}, {"measurement": "inhibition at 1 µg/mL", "setting": "[3]", "result": 0, "unit": "%"}]}
